Tests used:
Tpa1p [1] = molecular target: T1, Tpa1p (Saccharomyces cerevisiae, UniProt P40032); assay: X-ray crystal structure, […] Å; type: binding
T1 construct: gene TPA1; full-length (644 aa), N-terminal hexa-histidine tag

OGFOD1 [2] = molecular target: T2, OGFOD1 (Homo sapiens, UniProt Q8N543); assay: hydroxylation of uS12 […]-70 peptide by MALDI-TOF MS; type: biochemical; set-up: 542 aa, N-terminal hexa-histidine tag
T2 sequence (Q8N543 1-542): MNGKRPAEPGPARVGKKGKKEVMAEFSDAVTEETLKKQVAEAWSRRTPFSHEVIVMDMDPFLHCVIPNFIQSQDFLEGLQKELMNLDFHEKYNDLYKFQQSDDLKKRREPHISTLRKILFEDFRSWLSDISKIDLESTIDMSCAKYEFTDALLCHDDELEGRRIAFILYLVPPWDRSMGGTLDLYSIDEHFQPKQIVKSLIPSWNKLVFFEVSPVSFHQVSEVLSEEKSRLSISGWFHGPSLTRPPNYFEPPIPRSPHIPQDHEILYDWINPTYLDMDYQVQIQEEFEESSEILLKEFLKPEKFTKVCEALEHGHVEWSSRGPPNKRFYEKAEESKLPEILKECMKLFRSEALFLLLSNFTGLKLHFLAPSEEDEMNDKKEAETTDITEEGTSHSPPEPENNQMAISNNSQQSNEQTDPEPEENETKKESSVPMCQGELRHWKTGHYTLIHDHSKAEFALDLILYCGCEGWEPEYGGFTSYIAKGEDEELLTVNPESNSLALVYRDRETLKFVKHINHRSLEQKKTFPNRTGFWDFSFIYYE

Tpa1p [3] = molecular target: T1, Tpa1p; assay: X-ray crystal structure, […] Å; type: binding; remark: listed apart in the source
OGFOD1 [4] = molecular target: T2, OGFOD1; assay: X-ray crystal structure, […] Å (also enzyme inhibition, Figure 6A); type: binding; set-up: full-length (542 aa), N-terminal hexa-histidine tag

T1 sequence (P40032 whole entry): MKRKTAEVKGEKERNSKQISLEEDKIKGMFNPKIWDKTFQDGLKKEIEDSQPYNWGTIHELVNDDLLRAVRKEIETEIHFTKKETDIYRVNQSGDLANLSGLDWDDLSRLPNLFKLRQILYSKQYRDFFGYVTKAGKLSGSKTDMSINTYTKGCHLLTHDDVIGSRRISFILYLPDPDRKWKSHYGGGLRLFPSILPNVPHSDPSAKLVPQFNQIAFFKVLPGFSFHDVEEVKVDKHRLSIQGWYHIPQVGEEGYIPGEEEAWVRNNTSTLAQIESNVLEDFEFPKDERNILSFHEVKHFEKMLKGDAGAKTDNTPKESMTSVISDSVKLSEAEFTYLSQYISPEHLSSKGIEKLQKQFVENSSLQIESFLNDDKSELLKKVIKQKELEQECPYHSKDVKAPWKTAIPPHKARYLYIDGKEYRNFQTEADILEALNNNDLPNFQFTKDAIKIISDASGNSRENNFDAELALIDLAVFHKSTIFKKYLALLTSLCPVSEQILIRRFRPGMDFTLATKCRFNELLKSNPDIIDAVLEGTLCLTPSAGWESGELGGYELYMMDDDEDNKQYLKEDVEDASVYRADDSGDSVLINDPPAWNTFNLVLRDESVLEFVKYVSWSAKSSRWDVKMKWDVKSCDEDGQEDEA

## O=C(O)CNC(=O)c1nc(Cl)c2ccccc2c1O [IOX3, 1-chloro-4-hydroxyisoquinoline-3-carbonylglycine]
Tpa1p [1]
  X-ray crystal structure, 1.9 Å: In Tpa1p, IOX3 binds similarly to NOG with its glycyl side chain carboxylate positioned to form a salt bridge
OGFOD1 [2]
  IC50: 520 ± 80 nM

## O=C(O)CNC(=O)C(=O)O [N-oxalylglycine]
Tpa1p [3]
  X-ray crystal structure, 2.8 Å: OGFOD1 and Tpa1p bind NOG similarly.
OGFOD1 [4]
  X-ray crystal structure, 2.1 Å (also enzyme inhibition, Figure 6A): With OGFOD1 the C-5 carboxylate of NOG is positioned to form hydrogen bonds to the side chains of Tyr169 and Arg230

— article PMC4396695, “Structure of the Ribosomal Oxygenase OGFOD1 Provides Insights into the Regio- and Stereoselectivity of Prolyl Hydroxylases” (Structure(London, England:1993), 2015)
